Assay results reported in patent publication US9670211B2, “Aza-oxo-indoles for the treatment and prophylaxis of respiratory syncytial virus infection” (Hoffmann-La Roche Inc., priority 2013, dated 2017).

Key:
RSV Long strain = assay: Viral Cytopathic Effect (CPE) Assay; type: cell-based; settings: human respiratory syncytial virus, 144 h; RSV Long strain (ATCC), cell viability after 6 days by Cell Counting kit-8
Description: Viral Cytopathic Effect (CPE) Assay
To measure anti-RSV activity of compounds, 96-well plates are seeded with 6×10^3 cells per well in Dulbecco's modified Eagle's medium (DMEM) containing 10% fetal bovine serum (FBS). Cells are infected the next day with sufficient RSV Long strain (ATCC) to produce an approximately 80-90% cytopathic effect after 6 days, in the presence of serial half-log diluted compound in a total volume of 200 μL per well. The viability of cells is assessed after 6 days using Cell Counting kit-8 (Dojindo Molecular Technologies). The absorbance at 450 nm and referenced at 630 nm is measured to determine 50% effective concentration (EC50).

RSV infection = settings: intramuscularly at 15 mg/kg once a month for the duration of RSV season, selected infants; cited from earlier work

Row | Compound | EC50 (RSV Long strain) [nM] | reduction of hospitalization rate caused by RSV infection (RSV infection)
1 | CC(C)C(=O)N1CC[C@@H](n2c(CN3C(=O)C4(CC4)c4ccncc43)nc3cc(Cl)ccc32)C1 [Example 11, 1′-({5-Chloro-1-[(3R)-1-(2-methylpropanoyl)pyrrolidin-3-yl]-1H-benzimidazol-2-yl}methyl)spiro[cyclopropane-1,3′-pyrrolo[2,3-c]pyridin]-2′(1′H)-one] | 3 | –
2 | CS(=O)(=O)N1CC(n2c(CN3C(=O)C4(CC4)c4ccncc43)nc3cc(Cl)ccc32)C1 [Example 12, 1′-({5-Chloro-1-[1-(methylsulfonyl)azetidin-3-yl]-1H-benzimidazol-2-yl}methyl)spiro[cyclopropane-1,3′-pyrrolo[2,3-c]pyridin]-2′(1′H)-one] | 1.8 | –
3 | O=C1N(Cc2nc3cc(Cl)ccc3n2C2CNS(=O)(=O)C2)c2cnccc2C12CC2 (centres unmarked) [Example 15, 1′-{[5-Chloro-1-(1,1-dioxido-1,2-thiazolidin-4-yl)-1H-benzimidazol-2-yl]methyl}spiro[cyclopropane-1,3′-pyrrolo[2,3-c]pyridin]-2′(1′H)-one] | 1.6 | –
4 | O=C1N(Cc2nc3cc(Cl)ccc3n2C2CNC3(COC3)C2)c2cnccc2C12CC2 (centres unmarked) [Example 16, 1′-{[5-Chloro-1-(2-oxa-5-azaspiro[3.4]oct-7-yl)-1H-benzimidazol-2-yl]methyl}spiro[cyclopropane-1,3′-pyrrolo[2,3-c]pyridin]-2′(1′H)-one] | 2.2 | –
5 | O=C1N(Cc2cc3cc(Cl)cc(F)c3n2C2CCS(=O)(=O)C2)c2cnccc2C12CC2 (centres unmarked) [Example 17, 1′-{[5-Chloro-1-(1,1-dioxidotetrahydrothiophen-3-yl)-7-fluoro-1H-indol-2-yl]methyl}spiro[cyclopropane-1,3′-pyrrolo[2,3-c]pyridin]-2′(1′H)-one] | 0.6 | –
6 | O=C1N(Cc2cc3cc(Cl)ccc3n2C2CCS(=O)(=O)C2)c2cnccc2C12CC2 (centres unmarked) [Example 18, 1′-{[5-Chloro-1-(1,1-dioxidotetrahydrothiophen-3-yl)-1H-indol-2-yl]methyl}spiro[cyclopropane-1,3′-pyrrolo[2,3-c]pyridin]-2′(1′H)-one] | 1.9 | –
7 | O=C1N(Cc2cc3cc(Cl)cnc3n2C2CCS(=O)(=O)C2)c2cnccc2C12CC2 (centres unmarked) [Example 19, 1′-{[5-Chloro-1-(1,1-dioxidotetrahydrothiophen-3-yl)-1H-pyrrolo[2,3-b]pyridin-2-yl]methyl}spiro[cyclopropane-1,3′-pyrrolo[2,3-c]pyridin]-2′(1′H)-one] | 6 | –
8 | palivizumab: humanized monoclonal antibody against RSV fusion (F) protein approved for prophylaxis in high-risk infants | – | 45-55%

Continued, in another order:

Row | EC50 (RSV Long strain) [nM] | Compound | reduction of hospitalization rate caused by RSV infection (RSV infection)
9 | 9 | O=C1CC(n2c(CN3C(=O)C4(CC4)c4ccncc43)nc3cc(Cl)ccc32)CN1 (centres unmarked) [Example 7-2, 1′-{[5-Chloro-1-(5-oxopyrrolidin-3-yl)-1H-benzimidazol-2-yl]methyl}spiro[cyclopropane-1,3′-pyrrolo[2,3-c]pyridin]-2′(1′H)-one] | –
10 | 6 | CN1CC(n2c(CN3C(=O)C4(CC4)c4ccncc43)nc3cc(Cl)ccc32)CC1=O (centres unmarked) [Example 8-1, 1′-{[5-Chloro-1-(1-methyl-5-oxopyrrolidin-3-yl)-1H-benzimidazol-2-yl]methyl}spiro[cyclopropane-1,3′-pyrrolo[2,3-c]pyridin]-2′(1′H)-one] | –
11 | 1.1 | CCN1CC(n2c(CN3C(=O)C4(CC4)c4ccncc43)nc3cc(Cl)ccc32)CC1=O (centres unmarked) [Example 8-2, 1′-{[5-Chloro-1-(1-ethyl-5-oxopyrrolidin-3-yl)-1H-benzimidazol-2-yl]methyl}spiro[cyclopropane-1,3′-pyrrolo[2,3-c]pyridin]-2′(1′H)-one] | –
12 | 13 | O=C1N(Cc2nc3cc(Cl)cc(F)c3n2[C@H]2CCS(=O)(=O)C2)c2cnccc2C12CC2 [Example 9-1, 1′-({5-Chloro-1-[(3S)-1,1-dioxidotetrahydrothiophen-3-yl]-7-fluoro-1H-benzimidazol-2-yl}methyl)spiro[cyclopropane-1,3′-pyrrolo[2,3-c]pyridin]-2′(1′H)-one] | –
13 | 0.7 | O=C1N(Cc2nc3cc(Cl)cc(F)c3n2[C@@H]2CCS(=O)(=O)C2)c2cnccc2C12CC2 [Example 9-2, 1′-({5-Chloro-1-[(3R)-1,1-dioxidotetrahydrothiophen-3-yl]-7-fluoro-1H-benzimidazol-2-yl}methyl)spiro[cyclopropane-1,3′-pyrrolo[2,3-c]pyridin]-2′(1′H)-one] | –
14 | 78 | O=C1N(Cc2nc3cc(Cl)ccc3n2C2CCNCC2)c2cnccc2C12CC2 [Example 10-1, 1′-{[5-Chloro-1-(piperidin-4-yl)-1H-benzimidazol-2-yl]methyl}spiro[cyclopropane-1,3′-pyrrolo[2,3-c]pyridin]-2′(1′H)-one] | –
15 | 138 | O=C1N(Cc2nc3cc(Cl)ccc3n2C2CNC2)c2cnccc2C12CC2 [Example 10-2, 1′-{[1-(Azetidin-3-yl)-5-chloro-1H-benzimidazol-2-yl]methyl}spiro[cyclopropane-1,3′-pyrrolo[2,3-c]pyridin]-2′(1′H)-one] | –
16 | 7 | O=C1N(Cc2nc3cc(Cl)ccc3n2[C@H]2C[C@@H](O)C2)c2cnccc2C12CC2 [Example 14-1, 1′-{[5-Chloro-1-(cis-3-hydroxycyclobutyl)-1H-benzimidazol-2-yl]methyl}spiro[cyclopropane-1,3′-pyrrolo[2,3-c]pyridin]-2′(1′H)-one] | –
17 | 0.8 | O=C1N(Cc2nc3cc(Cl)ccc3n2[C@H]2C[C@H](O)C2)c2cnccc2C12CC2 [Example 14-2, 1′-{[5-Chloro-1-(trans-3-hydroxycyclobutyl)-1H-benzimidazol-2-yl]methyl}spiro[cyclopropane-1,3′-pyrrolo[2,3-c]pyridin]-2′(1′H)-one] | –
